Laboratory results published in patent US20090156646A1, “PYRIDYLPHENOL COMPOUND AND USE THEREOF” (TAKEDA PHARMACEUTICAL COMPANY LIMITED, priority 2005, published 2009).

Assays:
[1] = target: T1, human metastin receptor hOT7T175 (Homo sapiens, UniProt Q969F8, L364H); experiment: binding inhibiting activity: 125I-metastin (40-54) binding to cell membrane fraction of h175 KB34 cells; conditions: room temperature 60 minutes, read-out: binding inhibiting activity, represented by the IC50 value
T1 construct: encoding the entire length of human metastin receptor hOT7T175; expressed in transfected cells; host or cells: CHO/dhFr- cells (ATCC #CRL-9096) stably transfected with pAKKO-hOT7T175; clone h175-16 was used as whole cells for FLIPR
Summary of the method: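 Membranes came from CHO/dhfr− cells stably expressing human hOT7T175 (clone h175 KB34) and were diluted 250-fold for use. Binding of 125I-metastin (40-54) was run in 20 mM Tris, 2.5 mM magnesium acetate and 2 mM EGTA, pH 7.4, with protease inhibitors, either without BSA or with 1 mg/ml BSA.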

T1 sequence (Q969F8 whole entry L364H): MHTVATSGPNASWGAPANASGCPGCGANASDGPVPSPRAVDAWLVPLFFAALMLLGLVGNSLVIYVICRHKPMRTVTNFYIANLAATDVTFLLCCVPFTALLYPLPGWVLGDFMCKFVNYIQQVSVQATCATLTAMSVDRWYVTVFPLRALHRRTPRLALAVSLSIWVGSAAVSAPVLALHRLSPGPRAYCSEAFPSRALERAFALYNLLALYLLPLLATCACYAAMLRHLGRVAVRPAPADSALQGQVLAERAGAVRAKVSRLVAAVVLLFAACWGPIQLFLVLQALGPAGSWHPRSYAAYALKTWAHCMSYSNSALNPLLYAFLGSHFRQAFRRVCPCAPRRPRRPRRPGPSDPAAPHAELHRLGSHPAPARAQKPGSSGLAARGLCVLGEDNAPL

## COc1ccccc1C(=O)Nc1nc(-c2ccc(F)cc2O)cc(-c2cccc(C(=O)NCCN)c2)c1C#N.Cl [Example 244, N-[4-(3-{[(2-aminoethyl)amino]carbonyl}phenyl)-3-cyano-6-(4-fluoro-2-hydroxyphenyl)pyridin-2-yl]-2-methoxybenzamide hydrochloride]
[1]
  IC50: ≤ 10 µM
other
  melting point: 227 to 229 °C

## CN1C[C@H](O)C[C@H]1C(=O)Nc1cccc(-c2cc(-c3ccc(F)cc3O)nc(NC(=O)c3ccco3)c2C#N)c1.Cl [Example 299, (4R)—N-{3-[3-cyano-6-(4-fluoro-2-hydroxyphenyl)-2-(2-furoylamino)pyridin-4-yl]phenyl}-4-hydroxy-1-methyl-L-prolinamide hydrochloride]
[1]
  IC50: ≤ 10 µM
other
  melting point: 215 to 217 °C

## Cl.N#Cc1c(-c2cccc(NC(=O)[C@@H]3CCCC[C@@H]3N)c2)cc(-c2ccc(F)cc2O)nc1NC(=O)c1ccco1 [Example 284, N-{4-[3-({[(1R,2S)-2-aminocyclohexyl]carbonyl}amino)phenyl]-3-cyano-6-(4-fluoro-2-hydroxyphenyl)pyridin-2-yl}-2-furamide hydrochloride]
[1]
  IC50: ≤ 10 µM
other
  melting point: 220 to 223 °C

## COC[C@H](N)C(=O)Nc1cccc(-c2cc(-c3ccc(F)cc3O)nc(NC(=O)c3ccco3)c2C#N)c1.Cl [Example 301, N-(3-cyano-6-(4-fluoro-2-hydroxyphenyl)-4-{3-[(O-methyl-L-seryl)amino]phenyl}pyridin-2-yl)-2-furamide hydrochloride]
[1]
  IC50: ≤ 10 µM
other
  melting point: 224 to 230 °C

## COc1ccccc1C(=O)Nc1nc(-c2ccc(Cl)cc2O)cc(-c2cccc(C(=O)NCCCn3ccnc3)c2)c1C#N.Cl [Example 70, N-{6-(4-chloro-2-hydroxyphenyl)-3-cyano-4-[3-({[3-(1H-imidazole-1-yl)propyl]amino}carbonyl)phenyl]pyridin-2-yl}-2-methoxybenzamide hydrochloride]
[1]
  IC50: ≤ 10 µM
other
  melting point: 234 to 237 °C

## Cl.N#Cc1c(-c2cccc(CNC(=O)CN)c2)cc(-c2ccccc2O)nc1NC(=O)c1cccs1 [Example 43, N-[3-cyano-4-{3-[(glycylamino)methyl]phenyl}-6-(2-hydroxyphenyl)pyridin-2-yl]thiophene-2-carboxamide hydrochloride]
[1]
  IC50: ≤ 10 µM
other
  melting point: 181 to 186 °C

## Cl.N#Cc1c(-c2cccc(NC(=O)[C@H]3CCCC[C@H]3N)c2)cc(-c2ccc(F)cc2O)nc1NC(=O)c1ccco1 [Example 283, N-{4-[3-({[(1S,2R)-2-aminocyclohexyl]carbonyl}amino)phenyl]-3-cyano-6-(4-fluoro-2-hydroxyphenyl)pyridin-2-yl}-2-furamide hydrochloride]
[1]
  IC50: ≤ 10 µM
other
  melting point: 237 to 239 °C

## Cl.N#Cc1c(-c2cccc(NC(=O)CN)c2)cc(-c2ccc(F)cc2O)nc1NC(=O)c1ccco1 [Example 329, N-{3-cyano-6-(4-fluoro-2-hydroxyphenyl)-4-[3-(glycylamino)phenyl]pyridin-2-yl}-2-furamide hydrochloride]
[1]
  IC50: ≤ 10 µM
other
  melting point: 229 to 236 °C

## COc1ccccc1C(=O)Nc1nc(-c2ccc(F)cc2O)cc(-c2cccc(NC(=O)CCN)c2)c1C#N.Cl [Example 247, N-[4-[3-(β-alanylamino)phenyl]-3-cyano-6-(4-fluoro-2-hydroxyphenyl)pyridin-2-yl]-2-methoxybenzamide hydrochloride]
[1]
  IC50: ≤ 10 µM
other
  melting point: 232 to 233 °C

## Cl.N#Cc1c(-c2cccc(C(=O)N[C@@H]3CCCC[C@H]3N)c2)cc(-c2ccc(F)cc2O)nc1NC(=O)c1ccco1 (racemic) [Example 289, N-{4-[3-({[(1SR,2SR)-2-aminocyclohexyl]amino}carbonyl)phenyl]-3-cyano-6-(4-fluoro-2-hydroxyphenyl)pyridin-2-yl}-2-furamide hydrochloride]
[1]
  IC50: ≤ 10 µM
other
  melting point: 285 to 288 °C

## CCN(CC)CCNC(=O)c1cccc(-c2cc(-c3ccc(F)cc3O)nc(NC(=O)c3ccco3)c2C#N)c1.Cl [Example 310, N-[3-cyano-4-[3-({[2-(diethylamino)ethyl]amino}carbonyl)phenyl]-6-(4-fluoro-2-hydroxyphenyl)pyridin-2-yl]-2-furamide hydrochloride]
[1]
  IC50: ≤ 10 µM
other
  melting point: 200 to 204 °C

## CC(C)C(N)CC(=O)Nc1cccc(-c2cc(-c3ccc(F)cc3O)nc(NC(=O)c3ccco3)c2C#N)c1.Cl (centres unmarked) [Example 266, N-[4-{3-[(3-amino-4-methylpentanoyl)amino]phenyl}-3-cyano-6-(4-fluoro-2-hydroxyphenyl)pyridin-2-yl]-2-furamide hydrochloride]
[1]
  IC50: ≤ 10 µM
other
  melting point: 214 to 217 °C

## Cl.N#Cc1c(-c2cccc(NC(=O)CN3CCCC3)c2)cc(-c2ccc(F)cc2O)nc1NC(=O)c1ccco1 [Example 259, N-(3-cyano-6-(4-fluoro-2-hydroxyphenyl)-4-{3-[(pyrrolidin-1-ylacetyl)amino]phenyl}pyridin-2-yl)-2-furamide hydrochloride]
[1]
  IC50: ≤ 10 µM
other
  melting point: 203 to 205 °C

## CCCN(CCC)C(C)CC(=O)Nc1cccc(-c2cc(-c3ccc(F)cc3O)nc(NC(=O)c3ccco3)c2C#N)c1.Cl (centres unmarked) [Example 318, N-[3-cyano-4-(3-{[3-(dipropylamino)butanoyl]amino}phenyl)-6-(4-fluoro-2-hydroxyphenyl)pyridin-2-yl]-2-furamide hydrochloride]
[1]
  IC50: ≤ 10 µM
other
  melting point: 198 to 200 °C

## CN(C)CCNC(=O)c1cccc(-c2cc(-c3ccc(F)cc3O)nc(NC(=O)c3ccco3)c2C#N)c1.Cl [Example 309, N-[3-cyano-4-[3-({[2-(dimethylamino)ethyl]amino}carbonyl)phenyl]-6-(4-fluoro-2-hydroxyphenyl)pyridin-2-yl]-2-furamide hydrochloride]
[1]
  IC50: ≤ 10 µM
other
  melting point: 200 to 204 °C

## Cl.N#Cc1c(-c2cccc(NC(=O)[C@@H]3CCCC[C@@H]3N)c2)cc(-c2ccc(F)cc2O)nc1NC(=O)c1ccco1 (racemic) [Example 267, N-{4-[3-({[(1SR,2RS)-2-aminocyclohexyl]carbonyl}amino)phenyl]-3-cyano-6-(4-fluoro-2-hydroxyphenyl)pyridin-2-yl}-2-furamide hydrochloride]
[1]
  IC50: ≤ 10 µM
other
  melting point: 224 to 225 °C

## CC(C)NC(C)CC(=O)Nc1cccc(-c2cc(-c3ccc(F)cc3O)nc(NC(=O)c3ccco3)c2C#N)c1.Cl (centres unmarked) [Example 321, N-[3-cyano-6-(4-fluoro-2-hydroxyphenyl)-4-(3-{[3-(isopropylamino)butanoyl]amino}phenyl)pyridin-2-yl]-2-furamide hydrochloride]
[1]
  IC50: ≤ 10 µM
other
  melting point: 197 to 199 °C

## N#Cc1c(-c2cccc(CN)c2)cc(-c2ccccc2O)nc1NC(=O)c1cccs1 [Example 1, N-[4-[3-(aminomethyl)phenyl]-3-cyano-6-(2-hydroxyphenyl)pyridin-2-yl]thiophene-2-carboxamide]
[1]
  IC50: ≤ 10 µM
other
  melting point: 203 to 205 °C

## CCN(C)CCC(=O)Nc1cccc(-c2cc(-c3ccc(F)cc3O)nc(NC(=O)c3ccco3)c2C#N)c1.Cl [Example 316, N-[3-cyano-4-{3-[(N-ethyl-N-methyl-β-alanyl)amino]phenyl}-6-(4-fluoro-2-hydroxyphenyl)pyridin-2-yl]-2-furamide hydrochloride]
[1]
  IC50: ≤ 10 µM
other
  melting point: 223 to 224 °C
